target: thymidine kinase (Oryctolagus cuniculus); assay: Inhibitory affect against rabbit thymus thymidine kinase

Row | Structure (SMILES) | Ki
1 | Cc1cn([C@H]2CC[C@@H](CO)O2)c(=O)[nH]c1=S | 1600 µM
2 | Cc1cn([C@H]2C=C[C@@H](CO)O2)c(=O)[nH]c1=S | 1690 µM
3 | Cc1cn([C@H]2C[C@H](N=[N+]=[N-])[C@@H](CO)O2)c(=O)[nH]c1=S | 54 µM

target: thymidine kinase (Oryctolagus cuniculus); assay: as above; remark: another data set of the same source

Row | Structure (SMILES) | Ki
4 | O=c1ccn([C@H]2C=C[C@@H](CO)O2)c(=O)[nH]1 | 445 µM
5 | O=c1[nH]c(=S)ccn1[C@H]1C=C[C@@H](CO)O1 | 1690 µM
6 | O=c1[nH]c(=S)ccn1[C@H]1CC[C@@H](CO)O1 | 1280 µM
